Measurements as given in paper PMC8587999, “Assessment of the Activity of Decoquinate and Its Quinoline-O-Carbamate Derivatives against Toxoplasma gondii In Vitro and in Pregnant Mice Infected with T. gondii Oocysts” (Molecules, 2021).
Converted amounts (≈) assume the structure as drawn. “And” between values parts separate entries of the source, which are not always exact repeats. Equal values may be shown once.

Assays:
[1] = design: method as in https://www.drugs.com/pro/deccox.html; settings: rats; ref https://www.drugs.com/pro/deccox.html; cited from earlier work
[2] = design: method as in PMID 32626086; settings: cited from earlier work
[3] = test system: T. gondii TgShSp1 oocysts; assay: DCQ efficacy assessment in pregnant CD1 mice orally infected with TgShSp1 oocysts; type: in vivo
Procedure: Twenty-nine female and 15 male CD1 mice, all 8 weeks of age, were used. Oestrus-synchronization and mating was carried out as described under Section 4.6. Subsequently, females were distributed randomly to 3 experimental groups: DCQ, DCQ + infection (n = 12); C+, corn oil + infection (n = 12); C-, only corn oil (n = 5). Infection was performed with 100 TgShSp1 oocysts at day 7 post-mating by oral gavage; the C− group received PBS. The treatment with DCQ suspended in corn oil at 10 mg/kg/day for 5 days; that only with corn oil was initiated at 2 days post-infection. At day 18 post-mating, pregnant mice were distributed into single cages and non-pregnant mice were housed together with 3–4 animals per cage. Dams gave birth between day 20–22, and clinical status, litter size, neonatal and postnatal mortality were recorded daily. Four weeks post-partum (p.p.), all mice were euthanized in a chamber by isoflurane/CO2 inhalation. Blood and brain samples were collected. Total IgG was measured in T. gondii infected mice by ELISA [49].
(§1) Quantification of the cerebral parasite load in non-pregnant mice, dams and pups was carried out with an established real-time PCR method for the detection of T. gondii. The NucleoSpin DNA RapidLyze Kit (Macherey-Nagel, Oensingen, Switzerland) was used for DNA purification according to the standard protocol and DNA concentrations were quantified by the QuantiFluor double-stranded DNA (dsDNA) system (Promega, Madison, WI, USA). Quantitative real-time PCR was performed with the Light Cycler (Roche, Basel, Switzerland), and the parasite load was calculated by including a standard curve of DNA samples from 1000, 100, and 10 T. gondii tachyzoites per run.
(§2) Graph creation and statistical analysis was performed in GraphPad Prism version 5.0 (GraphPad Software, La Jolla, CA, USA). Cerebral parasite burdens were compared between groups by the non-parametric Kruskal–Wallis test, followed by Mann–Whitney U test. Pup mortality over time was depicted by plotting survival events at each time point in Kaplan–Meier graphs and survival curves were compared by the Log-rank (Mantel–Cox) test.

[4] = design: method as in PMID 19614848; settings: milking cows, formulated DCQ 0.5 mg/kg; cited from earlier work
[5] = test system: T. gondii TgShSp1 oocysts; assay: RMB060 efficacy assessment in pregnant CD1 mice orally infected with TgShSp1 oocysts; type: in vivo
Procedure: Eight-week-old CD1 mice, 29 females and 15 males, were used. After oestrus-synchronization and mating, females were randomly distributed to 3 experimental groups: RMB060, RMB060 + infection (n = 12); C+, corn oil + infection (n = 12); C−, only corn oil (n = 5). Infection was carried out at day 7 post-mating with 100 TgShSp1 oocysts suspended in 100 µL PBS, with the C−group receiving only PBS. Treatments, separation of pregnant and non-pregnant mice, and monitoring were performed as described in Section 4.7. All mice were euthanized 4 weeks p.p. by isoflurane/CO2. Blood and brain samples were collected. Total IgG was measured in T. gondii infected mice by ELISA to see whether drug treatment would have an impact on the humoral immune response.
as §1, §2

[6] = test system: liver stage of Plasmodium berghei malaria parasites; design: method as in doi:10.1038/s42004-018-0062-7; settings: cited from earlier work
[7] = CD1 mice, TgShSp1 oocysts, 10 mg/kg/day oral for 5 days, positive/total adult mice
[8] = brain PCR, surviving pups, 10 mg/kg/day oral for 5 days
[9] = brain PCR, 10 mg/kg/day oral for 5 days
[10] = dead pups/pups born, 10 mg/kg/day oral for 5 days, 10 mg/kg/day
[11] = real-time PCR, 4 weeks p.p., non-pregnant mice and dams
[12] = serum at end of experiment, RIPC, non-pregnant mice and dams

CCCCCCCCCCOc1cc2c(O)c(C(=O)OCC)cnc2cc1OCC [DCQ, ethyl 6-decyloxy-7-ethoxy-4-oxo-1H-quinoline-3-carboxylate]
LD50 [1]: > 5000 mg/kg
aqueous solubility [2]: 0.06 µg/mL (≈ 0.144 µM)
Vertical transmission ([3]; 10 mg/kg/day for 5 days): did not prevent vertical transmission
Neonatal pup mortality ([3]; 10 mg/kg/day for 5 days, C+ group 40%): 70%
No. of Pups/No. of Dams ([3]; 10 mg/kg/day oral for 5 days): 92/8
Seropositive for T. gondii [3, 7]: 11/12
Brain infection detected in adult mice (dams and non-pregnant mice) ([3]; PCR, 10 mg/kg/day for 5 days): 11 out of 12
T. gondii Positive Pups [3, 8]: 25/25
T. gondii Positive Dams [3, 9]: 8/8
T. gondii Positive Non-Pregnant Mice [3, 9]: 3/4
Neonatal Mortality [3, 10]: 64 out of 92 and 64/92
Postnatal Mortality ([3]; dead/remaining pups, 1-month follow-up, 10 mg/kg/day oral for 5 days, 10 mg/kg/day): 3 of the 28 and 3/28
Cerebral parasite burden compared to the C+ group [3, 11]: No statistically significant differences
T. gondii IgG antibody titers compared to the C+ group [3, 12]: no statistically significant differences
maximum concentration attained in plasma [4]: 2 µM

CCCCCCCCCCOc1cc2c(OC(=O)N3CCN(S(C)(=O)=O)C3=O)c(C(=O)OCC)cnc2cc1OCC [RMB060]
Vertical transmission ([5]; 10 mg/kg/day for 5 days): vertical transmission to pups could not be prevented
Postnatal Mortality ([5]; 10 mg/kg/day for 5 days, C+ group 9.2%): 3.8%
Neonatal Mortality ([5]; 10 mg/kg/day for 5 days, C+ group 23%, non-significant): 16.8%
Surviving pups PCR-positive for T. gondii in the brain ([5]; 10 mg/kg/day for 5 days, C+ group 89%): 62%
No. of Pups/No. of Dams ([5]; 10 mg/kg/day oral for 5 days): 125/10
Seropositive for T. gondii [5, 7]: 8/12
Survival curves of pups compared to the C+ group ([5]; Kaplan–Meier, Log-rank (Mantel-Cox) test): No statistically significant differences
Brain infection detected in adult mice (dams and non-pregnant mice) ([5]; PCR, 10 mg/kg/day for 5 days): eight out of 12
T. gondii Positive Pups [5, 8]: 62/100
T. gondii Positive Dams [5, 9]: 7/10
T. gondii Positive Non-Pregnant Mice [5, 9]: 1/2
Neonatal Mortality [5, 10]: 21 out of 125 and 21/125
Postnatal Mortality ([5]; dead/remaining pups, 10 mg/kg/day oral for 5 days): 4/104
Cerebral parasite burden compared to the C+ group [5, 11]: No statistically significant differences
T. gondii IgG antibody titers compared to the C+ group [5, 12]: no statistically significant differences
Activity against the liver stage of Plasmodium berghei [6]: highly active
